Reference: US8575168B2, “Compounds and compositions as modulators of GPR119 activity” (IRM LLC, priority 2009, dated 2013)

Biological target: T1, human GPR119 (Homo sapiens, UniProt Q8TDV5)
T1 construct: expressed in transfected cells
T1 sequence (Q8TDV5 1-335): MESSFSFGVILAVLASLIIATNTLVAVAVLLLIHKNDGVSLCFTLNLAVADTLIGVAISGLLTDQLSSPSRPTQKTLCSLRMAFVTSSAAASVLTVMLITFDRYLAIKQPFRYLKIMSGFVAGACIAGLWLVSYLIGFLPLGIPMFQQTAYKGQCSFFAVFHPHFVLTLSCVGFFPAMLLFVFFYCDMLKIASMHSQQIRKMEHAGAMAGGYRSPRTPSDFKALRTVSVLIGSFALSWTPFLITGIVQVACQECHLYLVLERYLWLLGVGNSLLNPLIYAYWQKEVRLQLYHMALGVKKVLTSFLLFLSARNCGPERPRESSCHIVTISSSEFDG
Assay: Cyclic AMP Assay in Stable Cell Line (HTRF)
Assay type: cell-based
Conditions: Flp-In-CHO-hGPR119 cells, intracellular cAMP, 30 minutes at 37° C., 1 mM IBMX
Experimental: Flp-In-CHO cells (Invitrogen, Cat. #R758-07) are maintained in Ham's F12 medium supplemented with 10% fetal bovine serum, 1% antibiotic mixture and 2 mM L-glutamine. The cells are transfected with a DNA mixture containing human GPR119 in pcDNA5/FRT vector and the pOG44 vector (1:9) using Fugene6 (Roche), according to the manufacturer's instruction. After 48 hours, the medium is changed to medium supplemented with 400 μg/ml hygromycin B to initiate the selection of stably transfected cells.
To test the activity of compounds of the invention, Flp-In-CHO-hGPR119 cells are harvested and resuspended in DMEM plus 3% lipid-depleted fetal bovine serum. Forth μl of cells are plated in 384 well plates at a density of 15,000 cells/well. IBMX (3-isobutyl-1-methyl-xanthine) is added to the cells to a final concentration of 1 mM, followed by the addition of 500 nl of the compound to be tested. The cells are incubated at 37° C. for 30 minutes. Equal volume (20 μl) of the HTRF reagents, anti-cAMP-Cryptate and cAMP-XL665, are added to the cells. The plates are incubated at room temperature for 1 hour and read on a HTRF reader according to the manufacturer's instruction.

| Structure (SMILES) | EC50 |
| --- | --- |
| CC(C)c1ccc(CN2CC(Oc3cnc(N4CCN(S(C)(=O)=O)CC4=O)cn3)C2)cc1 [Example A19] | 12 nM |
| CS(=O)(=O)N1CCC(c2cc(F)c(OC3CN(Cc4ccc5ccccc5c4)C3)c(F)c2)CC1 [Example A30] | 135 nM |
| CS(=O)(=O)N1CCC(c2cc(F)c(OC3CN(Cc4cccc5ccccc45)C3)c(F)c2)CC1 [Example A31] | 652 nM |
| CS(=O)(=O)N1CC=C(c2cc(F)c(OC3CN(Cc4ccc(C(F)(F)F)cc4)C3)c(F)c2)CC1 [Example A34] | 12 nM |
| CS(=O)(=O)N1CCC(c2cc(F)c(OC3CN(Cc4ncc(C(F)(F)F)cc4Cl)C3)c(F)c2)CC1 [Example A26] | 330 nM |
| CC(C)c1ccc(CN2CC(Oc3ccc(N4CCN(S(C)(=O)=O)CC4)cc3)C2)cc1 [Example A22] | 116 nM |
| O=S(=O)(C1CCOCC1)N1CCC(c2cc(F)c(OC3CN(Cc4ccc(C(F)(F)F)cc4)C3)c(F)c2)CC1 [Example A36] | 28 nM |
| CC(C)c1ccc(CN2CC(Oc3ccc(N4CCN(C(=O)OCc5ccccc5)CC4=O)nc3)C2)cc1 [Example A2, Benzyl 4-(5-(1-(4-isopropylbenzyl)azetidin-3-yloxy)pyridin-2-yl)-3-oxopiperazine-1-carboxylate] | 979 nM |
| CCCS(=O)(=O)N1CCN(c2ccc(OC3CN(Cc4ccc(C(F)(F)F)cc4)C3)cn2)C(=O)C1 [Example A20] | 9 nM |
| Cc1ccc(CN2CC(Oc3ccc(N4CCN(S(C)(=O)=O)CC4)nc3)C2)cc1 [Example A14] | 238 nM |
| CS(=O)(=O)N1CCC(c2cc(F)c(OC3CCN(Cc4ccc(C(F)(F)F)nc4)CC3)c(F)c2)CC1 [Example A44] | 38 nM |
| CC(C)c1ccc(CN2CC(Oc3cnc(N4CCN(C(=O)OCc5ccccc5)CC4)cn3)C2)cc1 [Example A10] | 666 nM |
| CC(C)(C)OC(=O)N1CCC(S(=O)(=O)N2CCC(c3cc(F)c(OC4CN(Cc5ccc(C(F)(F)F)cc5)C4)c(F)c3)CC2)C1 (stereo not shown) [Example A39] | 214 nM |
| CS(=O)(=O)N1CCN(c2ccc(OC3CN(Cc4ccc(C(F)(F)F)cc4)C3)cn2)C(=O)C1 [Example A17] | 26 nM |
| CS(=O)(=O)N1CCC(c2cc(F)c(OC3CCN(Cc4ccc(C(F)(F)F)cc4)CC3)c(F)c2)CC1 [Example A5] | 9 nM |
| CS(=O)(=O)N1CCN(c2ccc(OC3CN(Cc4ccc(C(F)(F)F)cc4)C3)cn2)CC1 [Example A9] | 38 nM |
| CS(=O)(=O)N1CCN(c2ccc(OC3CN(Cc4ccc(C(F)(F)F)cc4)C3)c(F)c2)CC1 [Example A43] | 115 nM |
| CS(=O)(=O)N1CCC(c2cc(F)c(OC3CN(Cc4ccc(C(F)(F)F)cc4)C3)c(F)c2)CC1 [Example A7, 4-(3,5-difluoro-4-(1-(4-(trifluoromethyl)benzyl)azetidin-3-yloxy)phenyl)-1-(methylsulfonyl)piperidineine] | 13 nM |
| CS(=O)(=O)N1CCN(c2ccc(OC3CN(Cc4ccc(Cl)cc4)C3)cn2)CC1 [Example A15] | 134 nM |
| O=S(=O)(C1CCNCC1)N1CCC(c2cc(F)c(OC3CN(Cc4ccc(C(F)(F)F)cc4)C3)c(F)c2)CC1 [Example A38] | 458 nM |
| CS(=O)(=O)N1CCN(c2ccc(OC3CN(Cc4cccc(C(F)(F)F)c4)C3)cn2)CC1 [Example A16] | 884 nM |
| COc1ccc(CN2CC(Oc3ccc(N4CCN(S(C)(=O)=O)CC4)nc3)C2)cc1 [Example A12] | 341 nM |
| CC(C)(C)OC(=O)N1CCC(S(=O)(=O)N2CCC(c3cc(F)c(OC4CN(Cc5ccc(C(F)(F)F)cc5)C4)c(F)c3)CC2)CC1 [Example A37] | 325 nM |
| CS(=O)(=O)N1CCN(c2cnc(OC3CN(Cc4ccc(C(F)(F)F)cc4)C3)cn2)CC1 [Example A6, 2-(4-(methylsulfonyl)piperazin-1-yl)-5-(1-(4-(trifluoromethyl)benzyl)azetidin-3-yloxy)pyrazine] | 69 nM |
| CS(=O)(=O)N1CCC(c2cc(F)c(OC3CN(Cc4ncc(C(F)(F)F)cn4)C3)c(F)c2)CC1 [Example A27] | 764 nM |
| CS(=O)(=O)N1CCN(c2cnc(OC3CN(Cc4ccc(C(F)(F)F)cc4)C3)cn2)C(=O)C1 [Example A3] | 20 nM |
| O=S(=O)(C1CCNC1)N1CCC(c2cc(F)c(OC3CN(Cc4ccc(C(F)(F)F)cc4)C3)c(F)c2)CC1 (stereo not shown) [Example A40] | 576 nM |
| CS(=O)(=O)N1CCN(c2cc(F)c(OC3CN(Cc4ccc(C(F)(F)F)cc4)C3)c(F)c2)C(=O)C1 [Example A33] | 331 nM |

The remaining lines, values ahead:

| EC50 | Structure (SMILES) |
| --- | --- |
| 7 nM | CS(=O)(=O)N1CCC(c2cc(F)c(OC3CCN(Cc4nc(C(F)(F)F)no4)CC3)c(F)c2)CC1 [Example B1, 5-((4-(2,6-Difluoro-4-(1-(methylsulfonyl)piperidin-4-yl)phenoxy)piperidin-1-yl)methyl)-3-(trifluoromethyl)-1,2,4-oxadiazole] |
| 50 nM | CS(=O)(=O)N1CCC(c2c(F)cc(OC3CCN(Cc4nc(C(F)(F)F)no4)CC3)cc2F)CC1 [Example B29] |
| 70 nM | Cn1nc(C(F)(F)F)cc1CN1CCC(Oc2c(F)cc(C3CCN(S(C)(=O)=O)CC3)cc2F)CC1 [Example B14] |
| 448 nM | CS(=O)(=O)N1CCC(c2cc(F)c(OC3CN(Cc4csc(C(F)(F)F)n4)C3)c(F)c2)CC1 [Example B19] |
| 9 nM | CS(=O)(=O)N1CCC(c2cc(F)c(OC3CCN(Cc4nc(C(F)(F)F)cs4)CC3)c(F)c2)CC1 [Example B16] |
| 76 nM | CC(C)c1noc(CN2CC(Oc3c(F)cc(C4CCN(S(C)(=O)=O)CC4)cc3F)C2)n1 [Example B9] |
| 210 nM | CS(=O)(=O)N1CCC(c2cc(F)c(OC3CN(Cc4noc(C(F)(F)F)n4)C3)c(F)c2)CC1 [Example B23] |
| 6 nM | CC(C)c1noc(CN2CCC(Oc3c(F)cc(C4CCN(S(C)(=O)=O)CC4)cc3F)CC2)n1 [Example B24] |
| 644 nM | CC1(Oc2c(F)cc(C3CCN(S(C)(=O)=O)CC3)cc2F)CN(Cc2ccc(C(F)(F)F)cc2)C1 [Example C3] |
| 55 nM | CS(=O)(=O)N1CCC(c2cc(F)c(OC3CN(Cc4nc(C(F)(F)F)no4)C3)c(F)c2)CC1 [Example B12] |
| 108 nM | CC(F)(F)c1noc(CN2CC(Oc3c(F)cc(C4CCN(S(C)(=O)=O)CC4)cc3F)C2)n1 [Example B13] |
| 244 nM | Cn1nc(C(F)(F)F)nc1CN1CC(Oc2c(F)cc(C3CCN(S(C)(=O)=O)CC3)cc2F)C1 [Example B21] |
| 16 nM | CC(F)(F)c1noc(CN2CCC(Oc3c(F)cc(C4CCN(S(C)(=O)=O)CC4)cc3F)CC2)n1 [Example B3, 5-((4-(2,6-difluoro-4-(1-(methylsulfonyl)piperidin-4-yl)phenoxy)piperidin-1-yl)methyl)-3-(1,1-difluoroethyl)-1,2,4-oxadiazole] |
| 199 nM | CS(=O)(=O)N1CCC(F)(c2cc(F)c(OC3CCN(Cc4nc(C(F)(F)F)no4)CC3)c(F)c2)CC1 [Example D1, 5-((4-(2,6-difluoro-4-(4-fluoro-1-(methylsulfonyl)piperidin-4-yl)phenoxy)piperidin-1-yl)methyl)-3-(trifluoromethyl)-1,2,4-oxadiazole] |
| 131 nM | CS(=O)(=O)N1CCC(c2cc(F)c(OC3CN(Cc4nc(C5CC5)no4)C3)c(F)c2)CC1 [Example B10] |
| 397 nM | CC(C)c1nc(CN2CC(Oc3c(F)cc(C4CCN(S(C)(=O)=O)CC4)cc3F)C2)no1 [Example B11] |
| 28 nM | CC(C)(F)c1noc(CN2CCC(Oc3c(F)cc(C4CCN(S(C)(=O)=O)CC4)cc3F)CC2)n1 [Example B2, 5-((4-(2,6-difluoro-4-(1-(methylsulfonyl)piperidin-4-yl)phenoxy)piperidin-1-yl)methyl)-3-(2-fluoropropan-2-yl)-1,2,4-oxadiazole] |
| 144 nM | CS(=O)(=O)N1CCC(c2cc(F)c(OC3CCN(Cc4ccc(C(F)(F)F)cc4)C3)c(F)c2)CC1 (stereo not shown) [Example C1, 4-(3,5-Difluoro-4-(1-(4-(trifluoromethyl)benzyl)pyrrolidin-3-yloxy)phenyl)-1-(methylsulfonyl)piperidine] |
| 5 nM | CS(=O)(=O)N1CCC(c2cc(F)c(OC3CCN(Cc4nc(C(F)(F)F)no4)CC3)cc2F)CC1 [Example B28] |
| 125 nM | CS(=O)(=O)N1CCC(c2cc(F)c(OC3CCCN(Cc4ccc(C(F)(F)F)cc4)CC3)c(F)c2)CC1 (stereo not shown) [Example C2] |
| 286 nM | CC(C)(C)c1noc(CN2CC(Oc3c(F)cc(C4CCN(S(C)(=O)=O)CC4)cc3F)C2)n1 [Example B8] |
| 11 nM | CS(=O)(=O)N1CCC(c2ccc(OC3CCN(Cc4nc(C(F)(F)F)no4)CC3)c(F)c2F)CC1 [Example B27] |
| 16 nM | CS(=O)(=O)N1CCC(c2ccc(OC3CCN(Cc4nc(C(F)(F)F)no4)CC3)cc2F)CC1 [Example B7] |
| 74 nM | CS(=O)(=O)N1CCC(c2cc(F)c(OC3CN(Cc4nc(C(F)(F)F)cs4)C3)c(F)c2)CC1 [Example B17] |
